What was measured:
[1] = test system: kidneys (hematogenous seeding); test: Mouse bacteremia (renal abscess) model; type: in vivo; details: expressed in MRSA252 and 22030, versus isogenic strains expressing non-CC30 PSMα3
Method: (A) The MRSA252 strain (252, expressing PSMα3N22Y) was compared to a strain (252*) in which the psmα3 gene was changed to express non-CC30 PSMα3 in a mouse model of blood infection. Hematogenous seeding into the kidneys was measured 4 days after infecting mice via the tail vein with 1×10^7 CFU. Results from kidneys with considerable bacterial numbers (>10^3 CFU) are shown in the graph; the number of kidneys with lower or no bacteria is shown at the bottom. Analysis of significance was performed with the numbers obtained from all kidneys; *, p<0.05. Number of mice used per strain: 10. Two counts per analyzed kidney were performed. (B) Experiment as in (A) with strain 22030 expressing PSMα3N22Y and the isogenic 22030* strain expressing PSMα3. Number of mice used per strain: 20; two counts per analyzed kidney are included; inoculum: 1×10^6. *, p<0.05. (C, D) Tubulointerstitial nephritis with large colonies of bacteria (arrows) in kidneys infected with strain 252, magnification 100× (C) and 200× (D). (E) Absence of signs of infection in kidneys infected with strain 252* (magnification 100×).
For the renal abscess model, S. aureus strains were inoculated from a pre-culture and grown to mid-exponential growth phase (∼2 h), harvested, washed, and diluted with sterile PBS. […]

abscess or lesion = test: Mouse model of skin infection (abscess sizes); type: in vivo; details: Crl∶SKH1-hrBR mice, subcutaneous, 14 d; expressed in strains MRSA252 and 22030
Method: The mouse skin infection model was performed as described. Briefly, six to eight week-old female Crl∶SKH1-hrBR hairless mice (Charles River Laboratories) were injected subcutaneously with ∼4×10^7 CFU of S. aureus strains 252 or 252*, or ∼5×10^6 CFU of S. aureus strains 22030 or 22030* in 50 µl of PBS in the left flank of the mouse. The length (L) and width (W) of the abscess or lesion caused by the bacterial infection was measured with an electronic caliper daily for 14 d post infection and calculated using the formula L×W. Typically, strain MRSA252 caused closed abscesses and strain 22030 open lesions. All animals were euthanized after completion of the entire procedure. All mouse experiments were performed blinded at the animal care facility of the NIAID, Building 33, in compliance with the guidelines of the NIAID/NIH Institutional Animal Care and Use Committee.
Supplementary file ppat.1004298.s002.tif: Figure S2 Mouse model of skin infection. […] The length (L) and width (W) of the abscess or lesion caused by the bacterial infection was measured with an electronic caliper daily for 14 d post infection and calculated using the formula L×W. Typically, strain MRSA 252 caused closed abscesses and strain 22030 open lesions. […]

CSCC[C@H](NC=O)C(=O)N[C@@H](CCC(=O)O)C(=O)N[C@@H](Cc1ccccc1)C(=O)N[C@H](C(=O)N[C@@H](C)C(=O)N[C@@H](CCCCN)C(=O)N[C@@H](CC(C)C)C(=O)N[C@@H](Cc1ccccc1)C(=O)N[C@@H](CCCCN)C(=O)N[C@@H](Cc1ccccc1)C(=O)N[C@@H](Cc1ccccc1)C(=O)N[C@@H](CCCCN)C(=O)N[C@@H](CC(=O)O)C(=O)N[C@@H](CC(C)C)C(=O)N[C@@H](CC(C)C)C(=O)NCC(=O)N[C@@H](CCCCN)C(=O)N[C@@H](Cc1ccccc1)C(=O)N[C@@H](CC(C)C)C(=O)NCC(=O)N[C@@H](CC(N)=O)C(=O)N[C@@H](Cc1ccc(O)cc1)C(=O)O)C(C)C [PSMα3N22Y]
Capacity to cause sepsis and subsequent complications [1]: increased capacity to cause sepsis and subsequent complications | Virulence in skin infections as measured by abscess sizes (abscess or lesion): did not cause increased virulence in skin infections

Reference: article PMC4140855, “Production of an Attenuated Phenol-Soluble Modulin Variant Unique to the MRSA Clonal Complex 30 Increases Severity of Bloodstream Infection” (PLoS Pathogens, 2014)
